# Laboratory results as given in patent US8895558B2, “Arylpiperazine-containing pyrrole 3-carboxamide derivatives for treating depressive disorders” (Green Cross Corporation, priority 2008, dated 2014).
# Structures can show the parent of a compound that is named as a salt.
# Key:
# [1] = target: T1, human recombinant serotonin 5-HT2A receptor (Homo sapiens, UniProt P28223); test: Binding affinity for serotonin 5-HT2A receptor ([3H]Ketanserin); details: CHO-K1 expressed receptor, 1 nM [3H]Ketanserin
# T1 construct: purchased PerkinElmer Life and Analytical Sciences, USA; host or cells: CHO-K1
# Protocol: Receptor binding affinities of the compounds for serotonin receptors were measured by the method described in the literature [Park W K et al., Pharmacol Biochem Behav. 2005, 82(2), 361-372].
# For serotonin 5-HT2A binding, an aliquot of human recombinant serotonin 5-HT2A receptor (PerkinElmer Life and Analytical Sciences, USA) expressed in CHO-K1 cells (5 ug/well) and 1 nM [^3H]Ketanserin (PerkinElmer) were used in the presence of mianserin (20 uM) as nonspecific. The reaction mixture was incubated for 60 min at 27 using 50 mM Tris-HCl (pH 7.4) buffer containing 4 mM CaCl2 and 0.1% ascorbic acid, and harvested through filtermate A glass fiber filter (Wallac, Finland) presoaked in 0.5% polyethyleneimine (PEI) by microbeta filtermate-96 harvester (PerkinElmer) to terminate the reaction, and then washed with ice cold 50 mM Tris-HCl buffer solution (pH 7.4). The filter was then covered with MeltiLex, sealed in a sample bag, dried in an oven. The radioactivity retained in the filter was finally counted using MicroBeta Plus (Wallac).
# (§1) The binding affinity (IC50) of a compound for the receptor was calculated by computerized nonlinear regression analysis (GraphPad Prism Program, San Diego, USA) using 7-8 varied concentrations of the compound run in duplicate tubes.
# [2] = target: T2, human recombinant 5-HT2C receptor (Homo sapiens, UniProt P28335); test: Binding affinity for serotonin 5-HT2C receptor ([3H]Mesulergine); details: CHO-K1 membranes, 1.3 nM [3H]Mesulergine
# T2 construct: purchased PerkinElmer
# T2 sequence (P28335 33-458): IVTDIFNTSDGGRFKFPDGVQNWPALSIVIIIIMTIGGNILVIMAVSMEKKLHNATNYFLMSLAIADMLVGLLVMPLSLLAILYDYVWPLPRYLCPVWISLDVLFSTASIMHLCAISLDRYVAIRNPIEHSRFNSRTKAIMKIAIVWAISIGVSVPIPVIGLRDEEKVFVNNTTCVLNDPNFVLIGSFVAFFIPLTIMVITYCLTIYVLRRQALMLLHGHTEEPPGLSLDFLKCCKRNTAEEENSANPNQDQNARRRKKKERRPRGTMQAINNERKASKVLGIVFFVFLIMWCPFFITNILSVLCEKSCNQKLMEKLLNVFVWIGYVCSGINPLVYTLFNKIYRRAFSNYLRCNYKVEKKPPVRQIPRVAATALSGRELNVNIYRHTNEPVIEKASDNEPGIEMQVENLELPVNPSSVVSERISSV
# Protocol: Receptor binding affinities of the compounds for serotonin receptors were measured by the method described in the literature [Park W K et al., Pharmacol Biochem Behav.
# as §1
# Nonspecific binding was determined using 100 uM mianserin. The incubations were performed for 60 min at 27, and these were terminated by rapid filtration through filtermate. A glass fiber filter presoaked in 0.5% PEI.
# [3] = target: T3, human serotonin transporter (Homo sapiens, UniProt P31645); test: Binding affinity for serotonin transporter ([3H]Imipramine); details: HEK-293 membranes, 2 nM [3H]Imipramine
# T3 construct: purchased PerkinElmer; host or cells: HEK-293
# Protocol: For serotonin transporter binding assays, a reaction mixture with a final volume of 0.25 ml was prepared by mixing a test compound, human serotonin transporter membrane expressed in HEK-293 cells (PerkinElmer, 5 ug/well), [^3H]Imipramine (PerkinElmer, 2 nM) and 50 mM Tris-HCl (pH 7.4) buffer containing 120 mM NaCl and 5 mM KCl. The reaction mixture was incubated for 30 min at 27, and harvested through filtermate. A glass fiber filter presoaked in 0.5% PEI with ice cold 50 mM Tris-HCl buffer (pH 7.4) containing 0.9% NaCl.
# T3 sequence (P31645 whole entry): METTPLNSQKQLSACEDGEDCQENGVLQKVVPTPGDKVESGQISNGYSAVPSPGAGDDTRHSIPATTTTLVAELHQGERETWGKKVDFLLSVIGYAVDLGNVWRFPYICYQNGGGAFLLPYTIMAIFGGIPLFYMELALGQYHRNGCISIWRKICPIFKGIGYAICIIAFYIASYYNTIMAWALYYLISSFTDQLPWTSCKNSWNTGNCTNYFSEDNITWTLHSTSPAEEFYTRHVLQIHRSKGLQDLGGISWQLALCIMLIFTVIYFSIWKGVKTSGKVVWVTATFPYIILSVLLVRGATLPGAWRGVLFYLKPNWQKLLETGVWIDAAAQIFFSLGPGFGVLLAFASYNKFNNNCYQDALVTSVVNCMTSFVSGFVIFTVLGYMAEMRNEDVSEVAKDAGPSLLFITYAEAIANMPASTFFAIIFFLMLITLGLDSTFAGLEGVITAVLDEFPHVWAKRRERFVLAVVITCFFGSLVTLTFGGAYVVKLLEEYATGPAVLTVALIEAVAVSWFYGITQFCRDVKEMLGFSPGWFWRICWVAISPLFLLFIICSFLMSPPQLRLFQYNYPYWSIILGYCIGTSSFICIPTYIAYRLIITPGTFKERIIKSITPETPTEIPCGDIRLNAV
# T1 sequence (P28223 whole entry): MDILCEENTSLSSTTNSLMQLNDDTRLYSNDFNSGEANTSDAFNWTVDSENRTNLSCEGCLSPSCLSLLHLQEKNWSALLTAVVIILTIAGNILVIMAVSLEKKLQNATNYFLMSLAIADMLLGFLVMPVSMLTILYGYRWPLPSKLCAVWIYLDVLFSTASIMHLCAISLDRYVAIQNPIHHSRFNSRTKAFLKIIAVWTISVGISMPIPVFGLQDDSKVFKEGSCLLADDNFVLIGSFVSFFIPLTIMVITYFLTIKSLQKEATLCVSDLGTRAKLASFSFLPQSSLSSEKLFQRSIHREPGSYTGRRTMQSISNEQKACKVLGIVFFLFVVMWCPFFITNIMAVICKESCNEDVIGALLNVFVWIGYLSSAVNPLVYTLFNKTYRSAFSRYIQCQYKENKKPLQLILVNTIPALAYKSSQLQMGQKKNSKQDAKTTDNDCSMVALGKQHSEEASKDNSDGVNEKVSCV
SMILES,IC50 [1],IC50 [2],IC50 [3]
"Cc1[nH]c(-c2ccc(Cl)cc2)cc1C(=O)NCCCCN1CCN(c2cccc(Cl)c2Cl)CC1 [Example 47, 5-(4-chlorophenyl)-N-(4-(4-(2,3-dichlorophenyl)piperazin-1-yl)butyl)-2-methyl-1H-pyrrole-3-carboxamide hydrochloride]",56 nM,62 nM,122 nM
"CCn1c(-c2ccccc2)cc(C(=O)NCCN2CCN(c3cccc(Cl)c3Cl)CC2)c1C [Example 49, N-(2-(4-(2,3-dichlorophenyl)piperazin-1-yl)ethyl)-1-ethyl-2-methyl-5-phenyl-1H-pyrrole-3-carboxamide hydrochloride]",100 nM,96 nM,85 nM
"Cc1cccc(N2CCN(CCCNC(=O)c3cc(-c4ccc(Cl)cc4)n(C)c3C)CC2)c1C [Example 61, 5-(4-chlorophenyl)-N-(3-(4-(2,3-dimethylphenyl)piperazin-1-yl)propyl)-1,2-dimethyl-1H-pyrrole-3-carboxamide hydrochloride]",213 nM,129 nM,129 nM
"Cc1c(C(=O)NCCCN2CCN(c3cccc(Cl)c3Cl)CC2)cc(-c2ccc(Cl)cc2)n1C [Example 62, 5-(4-chlorophenyl)-N-(3-(4-(2,3-dichlorophenyl)piperazin-1-yl)propyl)-1,2-dimethyl-1H-pyrrole-3-carboxamide hydrochloride]",232 nM,39 nM,733 nM
"CCn1c(-c2ccc(Cl)cc2)cc(C(=O)NCCCN2CCN(c3cccc(C)c3C)CC2)c1C [Example 63, 5-(4-chlorophenyl)-N-(3-(4-(2,3-dimethylphenyl)piperazin-1-yl)propyl)-1-ethyl-2-methyl-1H-pyrrole-3-carboxamide hydrochloride]",151 nM,39 nM,93 nM
"CCCn1c(-c2ccc(Cl)cc2)cc(C(=O)NCCCN2CCN(c3cccc(C)c3C)CC2)c1C [Example 65, 5-(4-chlorophenyl)-N-(3-(4-(2,3-dimethylphenyl)piperazin-1-yl)propyl)-2-methyl-1-propyl-1H-pyrrole-3-carboxamide hydrochloride]",192 nM,26 nM,131 nM
"CCCn1c(-c2ccc(Cl)cc2)cc(C(=O)NCCCN2CCN(c3cccc(Cl)c3Cl)CC2)c1C [Example 66, 5-(4-chlorophenyl)-N-(3-(4-(2,3-dichlorophenyl)piperazin-1-yl)propyl)-2-methyl-1-propyl-1H-pyrrole-3-carboxamide hydrochloride]",333 nM,41 nM,1160 nM
"Cc1[nH]c(-c2ccc(Cl)cc2)cc1C(=O)NCCN1CCN(c2cccc(Cl)c2Cl)CC1 [Example 67, 5-(4-chlorophenyl)-N-(2-(4-(2,3-dichlorophenyl)piperazin-1-ypethyl)-2-methyl-1H-pyrrole-3-carboxamide hydrochloride]",100 nM,23 nM,233 nM
"Cc1c(C(=O)NCCN2CCN(c3cccc(Cl)c3Cl)CC2)cc(-c2ccc(Cl)cc2)n1C [Example 68, 5-(4-chlorophenyl)-N-(2-(4-(2,3-dichlorophenyl)piperazin-1-yl)ethyl)-1,2-dimethyl-1H-pyrrole-3-carboxamide hydrochloride]",292 nM,24 nM,176 nM
"CCn1c(-c2ccc(Cl)cc2)cc(C(=O)NCCN2CCN(c3cccc(Cl)c3Cl)CC2)c1C [Example 69, 5-(4-chlorophenyl)-N-(2-(4-(2,3-dichlorophenyl)piperazin-1-ypethyl)-1-ethyl-2-methyl-1H-pyrrole-3-carboxamide hydrochloride]",412 nM,29 nM,220 nM
"CCCCn1c(-c2ccccc2)cc(C(=O)NCCCN2CCN(c3cccc(Cl)c3Cl)CC2)c1C [Example 71, 1-butyl-N-(3-(4-(2,3-dichlorophenyl)piperazin-1-yl)propyl)-2-methyl-5-phenyl-1H-pyrrole-3-carboxamide hydrochloride]",188 nM,32 nM,642 nM
"CCCCCCn1c(-c2ccccc2)cc(C(=O)NCCCN2CCN(c3cccc(Cl)c3Cl)CC2)c1C [Example 72, N-(3-(4-(2,3-dichlorophenyl)piperazin-1-yl)propyl)-1-hexyl-2-methyl-5-phenyl-1H-pyrrole-3-carboxamide hydrochloride]",300 nM,68 nM,1190 nM
"COc1ccc(-c2cc(C(=O)NCCCN3CCN(c4cccc(Cl)c4Cl)CC3)c(C)[nH]2)cc1 [Example 73, N-(3-(4-(2,3-dichlorophenyl)piperazin-1-yl)propyl)-5-(4-methoxyphenyl)-2-methyl-1H-pyrrole-3-carboxamide hydrochloride]",37 nM,201 nM,204 nM
"COc1ccc(-c2cc(C(=O)NCCCN3CCN(c4cccc(Cl)c4Cl)CC3)c(C)n2C)cc1 [Example 74, N-(3-(4-(2,3-dichlorophenyl)piperazin-1-yl)propyl)-5-(4-methoxyphenyl)-1,2-dimethyl-1H-pyrrole-3-carboxamide hydrochloride]",108 nM,101 nM,76.2 nM
"CCn1c(-c2ccc(OC)cc2)cc(C(=O)NCCCN2CCN(c3cccc(Cl)c3Cl)CC2)c1C [Example 75, N-(3-(4-(2,3-dichlorophenyl)piperazin-1-yl)propyl)-1-ethyl-5-(4-methoxyphenyl)-2-methyl-1H-pyrrole-3-carboxamide hydrochloride]",141 nM,35 nM,100 nM
"Cc1[nH]c(-c2ccccc2)c(C)c1C(=O)NCCN1CCN(c2cccc(Cl)c2Cl)CC1 [Example 76, N-(2-(4-(2,3-dichlorophenyl)piperazin-1-yl)ethyl)-2,4-dimethyl-5-phenyl-1H-pyrrole-3-carboxamide hydrochloride]",37 nM,13 nM,162 nM
"Cc1[nH]c(-c2ccccc2)c(C)c1C(=O)NCCCN1CCN(c2cccc(Cl)c2Cl)CC1 [Example 77, N-(3-(4-(2,3-dichlorophenyl)piperazin-1-yl)propyl)-2,4-dimethyl-5-phenyl-1H-pyrrole-3-carboxamide hydrochloride]",39 nM,16 nM,36 nM
"Cc1[nH]c(-c2ccccc2)c(C)c1C(=O)NCCCCN1CCN(c2cccc(Cl)c2Cl)CC1 [Example 78, N-(4-(4-(2,3-dichlorophenyl)piperazin-1-yl)butyl)-2,4-dimethyl-5-phenyl-1H-pyrrole-3-carboxamide hydrochloride]",19 nM,10 nM,74 nM
"Cc1c(C(=O)NCCCN2CCN(c3cccc(Cl)c3Cl)CC2)c(C)n(C)c1-c1ccccc1 [Example 79, N-(3-(4-(2,3-dichlorophenyl)piperazin-1-yl)propyl)-1,2,4-trimethyl-5-phenyl-1H-pyrrole-3-carboxamide hydrochloride]",33 nM,16 nM,80 nM
"CCn1c(C)c(C(=O)NCCCN2CCN(c3cccc(Cl)c3Cl)CC2)c(C)c1-c1ccccc1 [Example 80, N-(3-(4-(2,3-dichlorophenyl)piperazin-1-yl)propyl)-1-ethyl-2,4-dimethyl-5-phenyl-1H-pyrrole-3-carboxamide hydrochloride]",47 nM,42 nM,97 nM
"CCCn1c(C)c(C(=O)NCCCN2CCN(c3cccc(Cl)c3Cl)CC2)c(C)c1-c1ccccc1 [Example 81, N-(3-(4-(2,3-dichlorophenyl)piperazin-1-yl)propyl)-2,4-dimethyl-5-phenyl-1-propyl-1H-pyrrole-3-carboxamide hydrochloride]",25 nM,75 nM,78 nM
